In the kinase profiling compilation of Christmann-Franck et al. (2016):

Assays:
Experiment in all cases: KINOMEscan competition binding
Details in all cases: compound 10.0 µM
[1] = molecular target: ACVR1 (human) (UniProt Q04771)
[2] = molecular target: ADCK3 (human) (UniProt Q8NI60)
[3] = molecular target: AKT2 (human) (UniProt P31751)
[4] = molecular target: CAMK1D (human) (UniProt Q8IU85)
[5] = molecular target: CAMK2A (human) (UniProt Q9UQM7)
[6] = molecular target: CDC42BPG (human) (UniProt Q6DT37)
Sequence of CDC42BPG (human) (Q6DT37 whole entry, looked up): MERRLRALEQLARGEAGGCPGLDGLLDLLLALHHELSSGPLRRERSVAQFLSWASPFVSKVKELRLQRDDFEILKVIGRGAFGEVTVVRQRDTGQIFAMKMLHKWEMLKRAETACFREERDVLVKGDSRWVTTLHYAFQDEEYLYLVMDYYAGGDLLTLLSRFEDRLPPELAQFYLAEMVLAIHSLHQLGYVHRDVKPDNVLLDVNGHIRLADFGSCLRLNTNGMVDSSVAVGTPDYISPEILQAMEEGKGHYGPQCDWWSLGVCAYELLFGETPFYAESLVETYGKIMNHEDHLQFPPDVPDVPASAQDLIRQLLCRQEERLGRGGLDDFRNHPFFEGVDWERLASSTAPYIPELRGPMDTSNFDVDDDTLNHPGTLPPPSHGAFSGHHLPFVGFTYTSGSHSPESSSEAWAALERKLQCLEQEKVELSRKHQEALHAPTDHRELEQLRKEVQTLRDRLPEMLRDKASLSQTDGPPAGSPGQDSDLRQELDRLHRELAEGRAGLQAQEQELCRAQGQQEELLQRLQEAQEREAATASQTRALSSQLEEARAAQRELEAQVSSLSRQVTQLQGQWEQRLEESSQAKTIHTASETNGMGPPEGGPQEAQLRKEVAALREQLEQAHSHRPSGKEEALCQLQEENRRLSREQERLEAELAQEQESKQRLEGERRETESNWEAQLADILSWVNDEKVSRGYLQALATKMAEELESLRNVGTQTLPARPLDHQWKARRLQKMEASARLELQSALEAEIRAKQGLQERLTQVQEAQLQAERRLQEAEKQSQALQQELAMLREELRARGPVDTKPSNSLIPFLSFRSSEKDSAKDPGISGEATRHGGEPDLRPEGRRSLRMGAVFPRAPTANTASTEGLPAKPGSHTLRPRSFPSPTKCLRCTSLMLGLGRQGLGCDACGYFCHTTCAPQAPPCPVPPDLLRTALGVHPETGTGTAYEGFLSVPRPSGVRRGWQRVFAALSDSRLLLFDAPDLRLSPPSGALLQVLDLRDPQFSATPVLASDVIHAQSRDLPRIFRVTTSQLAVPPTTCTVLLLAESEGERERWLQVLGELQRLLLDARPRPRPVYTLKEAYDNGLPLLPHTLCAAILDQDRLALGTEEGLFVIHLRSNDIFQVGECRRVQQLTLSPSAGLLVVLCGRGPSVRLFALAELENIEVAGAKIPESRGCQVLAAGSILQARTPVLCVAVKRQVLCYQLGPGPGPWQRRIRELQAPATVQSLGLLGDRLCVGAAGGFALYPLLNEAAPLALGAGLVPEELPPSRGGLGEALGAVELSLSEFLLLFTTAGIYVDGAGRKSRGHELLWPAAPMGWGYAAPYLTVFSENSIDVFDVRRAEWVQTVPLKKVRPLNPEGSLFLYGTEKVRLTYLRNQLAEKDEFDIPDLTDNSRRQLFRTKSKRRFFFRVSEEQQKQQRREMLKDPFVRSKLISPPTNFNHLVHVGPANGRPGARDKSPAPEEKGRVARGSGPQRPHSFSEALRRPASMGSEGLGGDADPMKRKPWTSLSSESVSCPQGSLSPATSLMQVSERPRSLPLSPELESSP

[7] = molecular target: CDK4 CCND1 (human) (UniProt P11802+P24385)
[8] = molecular target: CDK4 CCND3 (human) (UniProt P11802+P30281)
[9] = molecular target: CDKL5 (human) (UniProt O76039)
[10] = molecular target: CLK3 (human) (UniProt P49761)
[11] = molecular target: EPHA5 (human) (UniProt P54756)
[12] = molecular target: FGR (human) (UniProt P09769)
[13] = molecular target: GRK7 (human) (UniProt Q8WTQ7)
[14] = molecular target: HIPK4 (human) (UniProt Q8NE63)
[15] = molecular target: JAK1 JH1 catalytic (human) (UniProt P23458)
Sequence of JAK1 JH1 catalytic (human) (P23458 whole entry, looked up): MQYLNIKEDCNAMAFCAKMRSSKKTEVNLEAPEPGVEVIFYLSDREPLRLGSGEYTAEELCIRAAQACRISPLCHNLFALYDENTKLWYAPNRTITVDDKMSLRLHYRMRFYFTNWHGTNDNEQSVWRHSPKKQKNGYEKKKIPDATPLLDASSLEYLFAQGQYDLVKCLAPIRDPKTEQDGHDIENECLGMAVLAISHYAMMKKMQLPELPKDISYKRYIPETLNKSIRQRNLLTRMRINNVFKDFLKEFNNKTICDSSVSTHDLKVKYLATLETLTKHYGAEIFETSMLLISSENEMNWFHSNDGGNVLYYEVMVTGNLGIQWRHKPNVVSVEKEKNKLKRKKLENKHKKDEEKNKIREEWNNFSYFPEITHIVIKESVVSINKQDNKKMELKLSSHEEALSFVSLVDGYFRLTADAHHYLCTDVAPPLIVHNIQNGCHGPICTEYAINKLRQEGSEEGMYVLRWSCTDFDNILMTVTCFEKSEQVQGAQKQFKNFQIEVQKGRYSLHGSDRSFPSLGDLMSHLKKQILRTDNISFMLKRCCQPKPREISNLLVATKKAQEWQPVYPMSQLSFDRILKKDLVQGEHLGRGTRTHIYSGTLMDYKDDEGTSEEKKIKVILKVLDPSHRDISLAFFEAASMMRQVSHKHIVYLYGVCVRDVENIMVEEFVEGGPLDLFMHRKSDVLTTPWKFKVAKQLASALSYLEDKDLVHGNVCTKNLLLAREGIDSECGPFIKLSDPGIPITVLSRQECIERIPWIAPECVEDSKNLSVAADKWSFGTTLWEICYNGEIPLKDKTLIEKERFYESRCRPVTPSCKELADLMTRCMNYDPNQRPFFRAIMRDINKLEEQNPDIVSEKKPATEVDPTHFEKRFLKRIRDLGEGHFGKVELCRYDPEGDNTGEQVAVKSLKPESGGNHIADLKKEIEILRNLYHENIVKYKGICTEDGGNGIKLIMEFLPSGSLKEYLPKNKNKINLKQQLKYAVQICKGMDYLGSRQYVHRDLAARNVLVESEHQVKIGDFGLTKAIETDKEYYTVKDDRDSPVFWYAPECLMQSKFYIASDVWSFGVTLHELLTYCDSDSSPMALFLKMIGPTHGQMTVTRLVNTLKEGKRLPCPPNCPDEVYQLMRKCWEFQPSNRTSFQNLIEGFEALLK

[16] = molecular target: JAK2 JH1 catalytic (human) (UniProt O60674)
[17] = system: KIT (human), P10721 [V559D/V654A]
[18] = molecular target: MAP3K3 (human) (UniProt Q99759)
[19] = molecular target: MAP3K4 (human) (UniProt Q9Y6R4)
[20] = molecular target: MAPK1 (human) (UniProt P28482)
[21] = molecular target: MAPK6 (human) (UniProt Q16659)
[22] = molecular target: MARK1 (human) (UniProt Q9P0L2)
Sequence of MARK1 (human) (Q9P0L2 whole entry, looked up): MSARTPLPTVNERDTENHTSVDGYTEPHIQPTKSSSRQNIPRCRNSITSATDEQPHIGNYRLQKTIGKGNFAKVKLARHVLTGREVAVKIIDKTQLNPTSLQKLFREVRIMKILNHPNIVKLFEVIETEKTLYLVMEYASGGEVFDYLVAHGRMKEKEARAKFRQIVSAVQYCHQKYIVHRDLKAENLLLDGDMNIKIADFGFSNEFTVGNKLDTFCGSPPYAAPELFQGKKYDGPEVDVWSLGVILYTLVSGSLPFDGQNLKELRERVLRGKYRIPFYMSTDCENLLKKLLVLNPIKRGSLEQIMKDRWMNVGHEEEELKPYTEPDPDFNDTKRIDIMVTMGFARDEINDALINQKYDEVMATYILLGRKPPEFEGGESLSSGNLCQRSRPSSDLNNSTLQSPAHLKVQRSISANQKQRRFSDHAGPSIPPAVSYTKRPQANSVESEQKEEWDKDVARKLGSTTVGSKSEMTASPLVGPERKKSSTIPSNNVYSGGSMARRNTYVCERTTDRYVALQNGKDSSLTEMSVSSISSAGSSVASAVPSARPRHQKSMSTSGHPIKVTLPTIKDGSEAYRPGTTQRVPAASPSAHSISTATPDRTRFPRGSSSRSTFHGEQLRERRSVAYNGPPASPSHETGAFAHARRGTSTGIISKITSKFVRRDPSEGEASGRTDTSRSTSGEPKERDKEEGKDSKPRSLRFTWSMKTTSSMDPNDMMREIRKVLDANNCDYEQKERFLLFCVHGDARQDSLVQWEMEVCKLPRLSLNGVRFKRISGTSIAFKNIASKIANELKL

[23] = molecular target: MYLK3 (human) (UniProt Q32MK0)
Sequence of MYLK3 (human) (Q32MK0 whole entry, looked up): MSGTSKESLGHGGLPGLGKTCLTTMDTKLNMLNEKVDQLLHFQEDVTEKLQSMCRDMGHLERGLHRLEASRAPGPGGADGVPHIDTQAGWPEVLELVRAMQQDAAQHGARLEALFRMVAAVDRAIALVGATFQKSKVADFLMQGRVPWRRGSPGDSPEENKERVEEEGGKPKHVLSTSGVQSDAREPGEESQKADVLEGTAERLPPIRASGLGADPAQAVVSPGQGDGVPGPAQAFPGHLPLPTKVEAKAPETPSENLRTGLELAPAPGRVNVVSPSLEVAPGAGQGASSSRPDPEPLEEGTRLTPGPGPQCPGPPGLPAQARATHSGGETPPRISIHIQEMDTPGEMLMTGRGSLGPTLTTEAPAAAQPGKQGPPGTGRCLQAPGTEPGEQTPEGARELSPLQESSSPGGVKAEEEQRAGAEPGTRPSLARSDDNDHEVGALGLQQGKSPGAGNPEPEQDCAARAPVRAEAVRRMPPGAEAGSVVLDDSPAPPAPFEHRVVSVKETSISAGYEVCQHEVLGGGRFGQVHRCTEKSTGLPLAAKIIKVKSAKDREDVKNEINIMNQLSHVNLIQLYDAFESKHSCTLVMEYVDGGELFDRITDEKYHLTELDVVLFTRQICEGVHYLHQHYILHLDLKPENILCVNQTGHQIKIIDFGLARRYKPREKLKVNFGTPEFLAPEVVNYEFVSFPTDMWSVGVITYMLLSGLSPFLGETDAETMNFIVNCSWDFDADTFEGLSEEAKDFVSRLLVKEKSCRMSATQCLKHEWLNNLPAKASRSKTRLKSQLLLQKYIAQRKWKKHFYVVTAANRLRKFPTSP

[24] = molecular target: MYO3A (human) (UniProt Q8NEV4)
[25] = molecular target: NEK1 (human) (UniProt Q96PY6)
[26] = molecular target: NTRK2 (human) (UniProt Q16620)
[27] = molecular target: PI4KB (human) (UniProt Q9UBF8)
[28] = molecular target: PIM3 (human) (UniProt Q86V86)
[29] = molecular target: PRKACA (human) (UniProt P17612)
[30] = molecular target: PRKCQ (human) (UniProt Q04759)
Sequence of PRKCQ (human) (Q04759 whole entry, looked up): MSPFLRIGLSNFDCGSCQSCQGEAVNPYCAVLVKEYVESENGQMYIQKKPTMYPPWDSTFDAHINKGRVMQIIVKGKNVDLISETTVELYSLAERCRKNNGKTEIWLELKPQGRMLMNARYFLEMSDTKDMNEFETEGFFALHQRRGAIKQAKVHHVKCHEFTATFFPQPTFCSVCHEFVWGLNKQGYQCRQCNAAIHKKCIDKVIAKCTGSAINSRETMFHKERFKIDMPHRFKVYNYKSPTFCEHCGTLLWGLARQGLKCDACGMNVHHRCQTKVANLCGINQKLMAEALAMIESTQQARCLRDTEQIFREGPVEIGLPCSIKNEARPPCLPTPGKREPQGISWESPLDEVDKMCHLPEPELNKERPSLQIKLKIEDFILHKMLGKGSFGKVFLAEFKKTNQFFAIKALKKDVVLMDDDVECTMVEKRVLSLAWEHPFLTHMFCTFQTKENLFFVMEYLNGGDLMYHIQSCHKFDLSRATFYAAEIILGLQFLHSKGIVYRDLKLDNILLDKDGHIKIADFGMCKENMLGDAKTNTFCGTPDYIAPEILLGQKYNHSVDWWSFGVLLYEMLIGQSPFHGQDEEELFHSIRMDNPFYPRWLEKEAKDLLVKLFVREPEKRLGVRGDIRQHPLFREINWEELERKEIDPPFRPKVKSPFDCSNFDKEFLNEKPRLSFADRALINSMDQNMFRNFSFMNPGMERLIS

[31] = molecular target: PTK2B (human) (UniProt Q14289)
[32] = molecular target: RIOK3 (human) (UniProt O14730)
[33] = molecular target: RPS6KA5 KD2 (human) (UniProt O75582)
[34] = molecular target: RPS6KA6 KD2 (human) (UniProt Q9UK32)
[35] = molecular target: RPS6KB1 (human) (UniProt P23443)
[36] = molecular target: STK32B (human) (UniProt Q9NY57)
[37] = molecular target: STK39 (human) (UniProt Q9UEW8)
[38] = molecular target: STK4 (human) (UniProt Q13043)
[39] = molecular target: VRK2 (human) (UniProt Q86Y07)
[40] = molecular target: WEE2 (human) (UniProt P0C1S8)

Compound	kinase still bound, per cent of control [1] [%]	kinase still bound, per cent of control [2] [%]	kinase still bound, per cent of control [3] [%]	kinase still bound, per cent of control [4] [%]	kinase still bound, per cent of control [5] [%]	kinase still bound, per cent of control [6] [%]	kinase still bound, per cent of control [7] [%]	kinase still bound, per cent of control [8] [%]	kinase still bound, per cent of control [9] [%]	kinase still bound, per cent of control [10] [%]	kinase still bound, per cent of control [11] [%]	kinase still bound, per cent of control [12] [%]	kinase still bound, per cent of control [13] [%]	kinase still bound, per cent of control [14] [%]	kinase still bound, per cent of control [15] [%]	kinase still bound, per cent of control [16] [%]	kinase still bound, per cent of control [17] [%]	kinase still bound, per cent of control [18] [%]	kinase still bound, per cent of control [19] [%]	kinase still bound, per cent of control [20] [%]	also measured
O=c1cc(N2CCOCC2)oc2c(-c3cccc4c3sc3ccccc34)cccc12	91	72	51	68	78	100	100	100	100	100	100	92	92	74	100	67	100	92	100	95	kinase still bound, per cent of control [21]: 100%; kinase still bound, per cent of control [22]: 100%; kinase still bound, per cent of control [23]: 100%; kinase still bound, per cent of control [24]: 89%; kinase still bound, per cent of control [25]: 58%; kinase still bound, per cent of control [26]: 100%; kinase still bound, per cent of control [27]: 100%; kinase still bound, per cent of control [28]: 65%; kinase still bound, per cent of control [29]: 87%; kinase still bound, per cent of control [30]: 100%; kinase still bound, per cent of control [31]: 94%; kinase still bound, per cent of control [32]: 100%; kinase still bound, per cent of control [33]: 80%; kinase still bound, per cent of control [34]: 79%; kinase still bound, per cent of control [35]: 67%; kinase still bound, per cent of control [36]: 95%; kinase still bound, per cent of control [37]: 100%; kinase still bound, per cent of control [38]: 98%; kinase still bound, per cent of control [39]: 100%; kinase still bound, per cent of control [40]: 100%
CN(C)C/C=C/C(=O)Nc1ccc(C(=O)Nc2cccc(Nc3nccc(-c4cccnc4)n3)c2)cc1	53	100	100	100	54	76	100	100	60	100	97	86	98	8.6	100	8.4	56	93	71	77	kinase still bound, per cent of control [21]: 7.4%; kinase still bound, per cent of control [22]: 70%; kinase still bound, per cent of control [23]: 87%; kinase still bound, per cent of control [24]: 73%; kinase still bound, per cent of control [25]: 63%; kinase still bound, per cent of control [26]: 69%; kinase still bound, per cent of control [27]: 51%; kinase still bound, per cent of control [28]: 78%; kinase still bound, per cent of control [29]: 100%; kinase still bound, per cent of control [30]: 68%; kinase still bound, per cent of control [31]: 100%; kinase still bound, per cent of control [32]: 13%; kinase still bound, per cent of control [33]: 98%; kinase still bound, per cent of control [34]: 97%; kinase still bound, per cent of control [35]: 100%; kinase still bound, per cent of control [36]: 100%; kinase still bound, per cent of control [37]: 58%; kinase still bound, per cent of control [38]: 100%; kinase still bound, per cent of control [39]: 90%; kinase still bound, per cent of control [40]: 100%
